Calls of active or inactive are those of the source. The rule behind the calls is not given here.
Test system: CCRIS mutagenicity, Ames/micronucleus/aberration tests
Test: CCRIS mutagenicity studies
[1] = Test System: AMES SALMONELLA TYPHIMURIUM, Strain/Indicator: TA100, Metabolic Activation: NONE, Method: PREINCUBATION
[2] = Test System: AMES SALMONELLA TYPHIMURIUM, Strain/Indicator: TA98, Metabolic Activation: NONE, Method: STANDARD PLATE
[3] = Test System: AMES SALMONELLA TYPHIMURIUM, Strain/Indicator: TA100, Metabolic Activation: NONE, Method: STANDARD PLATE

NCCS
mutagenic call (End Point: IN VIVO MICRONUCLEUS, Test System: BONE MARROW POLYCHROMATIC ERYTHROCYTES, Species: MOUSE, Strain/Sex: SWISS/FEMALE, Route: IP): inactive; negative
mutagenic call [1]: inactive; negative
mutagenic call (Test System: Ames Salmonella typhimurium, Strain/Indicator: TA98, Metabolic Activation: None, Method: Preincubation): inactive; negative
mutagenic call (Test System: Ames Salmonella typhimurium, Strain/Indicator: TA98, Metabolic Activation: Rat, Liver, S9, Sodium phenobarbital and 5,6-benzoflavone (10%), Method: Preincubation): inactive; negative
mutagenic call (Test System: Ames Salmonella typhimurium, Strain/Indicator: TA100, Metabolic Activation: None, Method: Preincubation): inactive; negative
mutagenic call (Test System: Ames Salmonella typhimurium, Strain/Indicator: TA100, Metabolic Activation: Rat, Liver, S9, Sodium phenobarbital and 5,6-benzoflavone (10%), Method: Preincubation): inactive; negative
mutagenic call (Test System: Ames Salmonella typhimurium, Strain/Indicator: TA1535, Metabolic Activation: None, Method: Preincubation): inactive; negative
mutagenic call (Test System: Ames Salmonella typhimurium, Strain/Indicator: TA1535, Metabolic Activation: Rat, Liver, S9, Sodium phenobarbital and 5,6-benzoflavone (10%), Method: Preincubation): inactive; negative
mutagenic call (Test System: Ames Salmonella typhimurium, Strain/Indicator: TA1537, Metabolic Activation: None, Method: Preincubation): inactive; negative
mutagenic call (Test System: Ames Salmonella typhimurium, Strain/Indicator: TA1537, Metabolic Activation: Rat, Liver, S9, Sodium phenobarbital and 5,6-benzoflavone (10%), Method: Preincubation): inactive; negative
mutagenic call (Test System: E. coli, Strain/Indicator: WP2uvrA/pKM101, Metabolic Activation: Rat, Liver, S9, Sodium phenobarbital and 5,6-benzoflavone (10%), Method: Preincubation): inactive; negative

CS(=O)CCCCN=C=S (stereo not drawn)
mutagenic call (End Point: IN VITRO MICRONUCLEUS, Test System: HUMAN T-LYMPHOCYTES, Metabolic Activation: NONE): inactive; negative

O=[N+]([O-])c1ccc2ccc3ccccc3c2c1
mutagenic call (Test System: AMES SALMONELLA TYPHIMURIUM, Strain/Indicator: TA98(1,8-DNP6), Metabolic Activation: NONE, Method: STANDARD PLATE): active; positive
mutagenic call (Test System: AMES SALMONELLA TYPHIMURIUM, Strain/Indicator: TA98(NR), Metabolic Activation: NONE, Method: STANDARD PLATE): active; positive
mutagenic call [2]: active; positive
mutagenic call [3]: active; positive
mutagenic call (Test System: AMES SALMONELLA TYPHIMURIUM, Strain/Indicator: TA7001, Metabolic Activation: NONE, Method: PREINCUBATION): active; positive
mutagenic call (Test System: AMES SALMONELLA TYPHIMURIUM, Strain/Indicator: TA7002, Metabolic Activation: NONE, Method: PREINCUBATION): active; positive
mutagenic call (Test System: AMES SALMONELLA TYPHIMURIUM, Strain/Indicator: TA7003, Metabolic Activation: NONE, Method: PREINCUBATION): active; positive
mutagenic call (Test System: AMES SALMONELLA TYPHIMURIUM, Strain/Indicator: TA7004, Metabolic Activation: NONE, Method: PREINCUBATION): active; positive
mutagenic call (Test System: AMES SALMONELLA TYPHIMURIUM, Strain/Indicator: TA7005, Metabolic Activation: NONE, Method: PREINCUBATION): active; positive
mutagenic call (Test System: AMES SALMONELLA TYPHIMURIUM, Strain/Indicator: TA7006, Metabolic Activation: NONE, Method: PREINCUBATION): active; positive
mutagenic call (Test System: AMES SALMONELLA TYPHIMURIUM, Strain/Indicator: YG1021, Metabolic Activation: NONE, Method: STANDARD PLATE): active; positive
mutagenic call (Test System: AMES SALMONELLA TYPHIMURIUM, Strain/Indicator: YG1024, Metabolic Activation: NONE, Method: STANDARD PLATE): active; positive
mutagenic call (Test System: AMES SALMONELLA TYPHIMURIUM, Strain/Indicator: YG1026, Metabolic Activation: NONE, Method: STANDARD PLATE): active; positive
mutagenic call (Test System: AMES SALMONELLA TYPHIMURIUM, Strain/Indicator: YG1029, Metabolic Activation: NONE, Method: STANDARD PLATE): active; positive

CCOC(=O)CBr
mutagenic call (End Point: IN VITRO CHROMOSOMAL ABERRATIONS, Test System: CHL CELLS, Metabolic Activation: RAT, LIVER, S-9, SODIUM PHENOBARBITAL AND 5,6-BENZOFLAVONE): inactive; negative; authors report equivocal results for structural changes at highest dos
mutagenic call (Test System: AMES SALMONELLA TYPHIMURIUM, Strain/Indicator: TA98, Metabolic Activation: NONE, Method: PREINCUBATION): inactive; negative
mutagenic call [2]: inactive; negative
mutagenic call (Test System: AMES SALMONELLA TYPHIMURIUM, Strain/Indicator: TA98, Metabolic Activation: RAT LIVER S-9, PHENOBARBITAL AND BETA-NAPHTHOFLAVONE, Method: PREINCUBATION): inactive; negative
mutagenic call (Test System: AMES SALMONELLA TYPHIMURIUM, Strain/Indicator: TA98, Metabolic Activation: RAT, LIVER, S-9, AROCLOR 1254, Method: STANDARD PLATE): inactive; negative
mutagenic call [1]: inactive; negative
mutagenic call [3]: inactive; negative
mutagenic call (Test System: AMES SALMONELLA TYPHIMURIUM, Strain/Indicator: TA100, Metabolic Activation: RAT LIVER S-9, PHENOBARBITAL AND BETA-NAPHTHOFLAVONE, Method: PREINCUBATION): inactive; negative
mutagenic call (Test System: AMES SALMONELLA TYPHIMURIUM, Strain/Indicator: TA100, Metabolic Activation: RAT, LIVER, S-9, AROCLOR 1254, Method: STANDARD PLATE): inactive; negative
mutagenic call (Test System: AMES SALMONELLA TYPHIMURIUM, Strain/Indicator: TA102, Metabolic Activation: NONE, Method: PREINCUBATION): inactive; negative
mutagenic call (Test System: AMES SALMONELLA TYPHIMURIUM, Strain/Indicator: TA102, Metabolic Activation: RAT LIVER S-9, PHENOBARBITAL AND BETA-NAPHTHOFLAVONE, Method: PREINCUBATION): inactive; negative
mutagenic call (Test System: AMES SALMONELLA TYPHIMURIUM, Strain/Indicator: TA104, Metabolic Activation: NONE, Method: PREINCUBATION): inactive; negative
mutagenic call (Test System: AMES SALMONELLA TYPHIMURIUM, Strain/Indicator: TA104, Metabolic Activation: RAT LIVER S-9, PHENOBARBITAL AND BETA-NAPHTHOFLAVONE, Method: PREINCUBATION): active; positive
mutagenic call (Test System: AMES SALMONELLA TYPHIMURIUM, Strain/Indicator: TA1535, Metabolic Activation: HAMSTER, LIVER, S-9, AROCLOR 1254, Method: STANDARD PLATE): inactive; negative
mutagenic call (Test System: AMES SALMONELLA TYPHIMURIUM, Strain/Indicator: TA1535, Metabolic Activation: NONE, Method: PREINCUBATION): inactive; negative
mutagenic call (Test System: AMES SALMONELLA TYPHIMURIUM, Strain/Indicator: TA1535, Metabolic Activation: NONE, Method: STANDARD PLATE): inactive; negative
mutagenic call (Test System: AMES SALMONELLA TYPHIMURIUM, Strain/Indicator: TA1535, Metabolic Activation: RAT LIVER S-9, PHENOBARBITAL AND BETA-NAPHTHOFLAVONE, Method: PREINCUBATION): inactive; negative
mutagenic call (Test System: AMES SALMONELLA TYPHIMURIUM, Strain/Indicator: TA1535, Metabolic Activation: RAT, LIVER, S-9, AROCLOR 1254, Method: STANDARD PLATE): inactive; negative
mutagenic call (Test System: AMES SALMONELLA TYPHIMURIUM, Strain/Indicator: TA1537, Metabolic Activation: HAMSTER, LIVER, S-9, AROCLOR 1254, Method: STANDARD PLATE): inactive; negative
mutagenic call (Test System: AMES SALMONELLA TYPHIMURIUM, Strain/Indicator: TA1537, Metabolic Activation: NONE, Method: PREINCUBATION): inactive; negative
mutagenic call (Test System: AMES SALMONELLA TYPHIMURIUM, Strain/Indicator: TA1537, Metabolic Activation: NONE, Method: STANDARD PLATE): inactive; negative
mutagenic call (Test System: AMES SALMONELLA TYPHIMURIUM, Strain/Indicator: TA1537, Metabolic Activation: RAT LIVER S-9, PHENOBARBITAL AND BETA-NAPHTHOFLAVONE, Method: PREINCUBATION): inactive; negative
mutagenic call (Test System: AMES SALMONELLA TYPHIMURIUM, Strain/Indicator: TA1537, Metabolic Activation: RAT, LIVER, S-9, AROCLOR 1254, Method: STANDARD PLATE): inactive; negative
mutagenic call (Test System: AMES SALMONELLA TYPHIMURIUM, Strain/Indicator: TA1538, Metabolic Activation: HAMSTER, LIVER, S-9, AROCLOR 1254, Method: STANDARD PLATE): inactive; negative
mutagenic call (Test System: AMES SALMONELLA TYPHIMURIUM, Strain/Indicator: TA1538, Metabolic Activation: NONE, Method: STANDARD PLATE): inactive; negative
mutagenic call (Test System: AMES SALMONELLA TYPHIMURIUM, Strain/Indicator: TA1538, Metabolic Activation: RAT, LIVER, S-9, AROCLOR 1254, Method: STANDARD PLATE): inactive; negative
mutagenic call (Test System: E.COLI, Strain/Indicator: WP2UVRA/PKM101, Metabolic Activation: NONE, Method: PREINCUBATION): inactive; negative
mutagenic call (Test System: E.COLI, Strain/Indicator: WP2UVRA/PKM101, Metabolic Activation: RAT LIVER S-9, PHENOBARBITAL AND BETA-NAPHTHOFLAVONE, Method: PREINCUBATION): active; positive
mutagenic call (Test System: E.COLI, Strain/Indicator: WP2UVRA, Metabolic Activation: NONE, Method: PREINCUBATION): inactive; negative
mutagenic call (Test System: E.COLI, Strain/Indicator: WP2UVRA, Metabolic Activation: RAT LIVER S-9, PHENOBARBITAL AND BETA-NAPHTHOFLAVONE, Method: PREINCUBATION): inactive; negative
mutagenic call (Test System: MOUSE LYMPHOMA, Strain/Indicator: L5178Y (TK+/TK-), Metabolic Activation: NONE, Method: SUSPENSION/PLATE): active; positive. reevaluation of results: inconclusive
mutagenic call (Test System: MOUSE LYMPHOMA, Strain/Indicator: L5178Y (TK+/TK-), Metabolic Activation: RAT, LIVER, S-9, AROCLOR 1254, Method: SUSPENSION/PLATE): active; positive. reevaluation of results: inconclusive
